Experimental data: article PMC11011526, “Identification of Inhibitors of the Disease-Associated Protein Phosphatase Scp1 Using Antibody Mimetic Molecules” (International Journal of Molecular Sciences, 2024)

Columns and labels:
Scp1 [1] = molecular target: T1, Scp1 (Homo sapiens, UniProt Q9GZU7); experiment: competition ELISA against FG-1Adn binding; conditions: 100 µM rabeprazole; 20 mM Na-maleate pH 5.5, 150 mM NaCl, 10 mM MgCl2; R.T.; indirect, displacement of adnectin FG-1Adn
T1 construct: gene CTDSP1; recombinant in E. coli Rosetta, Talon purified; His6-Scp1 (kinetics) or GST-Scp1-Myc-His6 (specificity assay)
T1 sequence (Q9GZU7 1-261): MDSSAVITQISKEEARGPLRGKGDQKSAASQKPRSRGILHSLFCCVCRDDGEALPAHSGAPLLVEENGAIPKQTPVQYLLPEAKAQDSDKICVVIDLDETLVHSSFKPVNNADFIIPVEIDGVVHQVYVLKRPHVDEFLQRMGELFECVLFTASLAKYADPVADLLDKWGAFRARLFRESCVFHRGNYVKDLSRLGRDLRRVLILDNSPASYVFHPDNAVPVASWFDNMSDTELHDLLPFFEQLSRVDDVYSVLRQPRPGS

Scp3 = molecular target: T2, Scp3 (Homo sapiens, UniProt O15194); experiment: colorimetric pNPP phosphatase assay, absorbance […] nm; type: biochemical; conditions: 20 mM Na-maleate pH 5.5, 10 mM MgCl2; 10 mM pNPP; 37 °C; 7 min
T2 construct: gene CTDSPL; recombinant, GST tag and Myc-His6 tag
T2 sequence (O15194 1-276): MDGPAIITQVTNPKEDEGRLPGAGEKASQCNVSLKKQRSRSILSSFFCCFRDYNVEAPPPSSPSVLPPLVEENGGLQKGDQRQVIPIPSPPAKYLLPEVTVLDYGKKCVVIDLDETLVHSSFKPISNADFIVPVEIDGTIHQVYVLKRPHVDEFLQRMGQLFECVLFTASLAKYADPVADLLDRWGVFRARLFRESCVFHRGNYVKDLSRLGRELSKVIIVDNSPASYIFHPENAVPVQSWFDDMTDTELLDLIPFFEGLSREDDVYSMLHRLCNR

Scp1 [2] = molecular target: T1, Scp1; experiment: as above; type: biochemical; conditions: 20 mM Na-maleate pH 5.5, 10 mM MgCl2; His6-Scp1 10 nM; no added adnectin
Scp2 = molecular target: T3, Scp2 (Homo sapiens, UniProt O14595); experiment: as above; type: biochemical; conditions: 20 mM Na-maleate pH 5.5, 10 mM MgCl2; 10 mM pNPP; 37 °C; 7 min
T3 construct: gene CTDSP2; recombinant, GST tag and Myc-His6 tag
T3 sequence (O14595 1-271): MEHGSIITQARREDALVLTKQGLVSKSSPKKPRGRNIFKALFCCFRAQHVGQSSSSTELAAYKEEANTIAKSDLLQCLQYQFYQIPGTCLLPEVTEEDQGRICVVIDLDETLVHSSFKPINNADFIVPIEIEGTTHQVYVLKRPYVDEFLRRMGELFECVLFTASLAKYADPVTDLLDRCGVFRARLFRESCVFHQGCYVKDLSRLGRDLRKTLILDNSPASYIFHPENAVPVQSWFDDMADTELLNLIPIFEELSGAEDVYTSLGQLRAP

Fcp1 = molecular target: T4, Fcp1 (Homo sapiens, UniProt Q9Y5B0); experiment: as above; type: biochemical; conditions: 20 mM Na-maleate pH 5.5, 10 mM MgCl2; 10 mM pNPP; 37 °C; 60 min
T4 construct: gene CTDP1; recombinant, GST tag and Myc-His6 tag
T4 sequence (Q9Y5B0 1-961): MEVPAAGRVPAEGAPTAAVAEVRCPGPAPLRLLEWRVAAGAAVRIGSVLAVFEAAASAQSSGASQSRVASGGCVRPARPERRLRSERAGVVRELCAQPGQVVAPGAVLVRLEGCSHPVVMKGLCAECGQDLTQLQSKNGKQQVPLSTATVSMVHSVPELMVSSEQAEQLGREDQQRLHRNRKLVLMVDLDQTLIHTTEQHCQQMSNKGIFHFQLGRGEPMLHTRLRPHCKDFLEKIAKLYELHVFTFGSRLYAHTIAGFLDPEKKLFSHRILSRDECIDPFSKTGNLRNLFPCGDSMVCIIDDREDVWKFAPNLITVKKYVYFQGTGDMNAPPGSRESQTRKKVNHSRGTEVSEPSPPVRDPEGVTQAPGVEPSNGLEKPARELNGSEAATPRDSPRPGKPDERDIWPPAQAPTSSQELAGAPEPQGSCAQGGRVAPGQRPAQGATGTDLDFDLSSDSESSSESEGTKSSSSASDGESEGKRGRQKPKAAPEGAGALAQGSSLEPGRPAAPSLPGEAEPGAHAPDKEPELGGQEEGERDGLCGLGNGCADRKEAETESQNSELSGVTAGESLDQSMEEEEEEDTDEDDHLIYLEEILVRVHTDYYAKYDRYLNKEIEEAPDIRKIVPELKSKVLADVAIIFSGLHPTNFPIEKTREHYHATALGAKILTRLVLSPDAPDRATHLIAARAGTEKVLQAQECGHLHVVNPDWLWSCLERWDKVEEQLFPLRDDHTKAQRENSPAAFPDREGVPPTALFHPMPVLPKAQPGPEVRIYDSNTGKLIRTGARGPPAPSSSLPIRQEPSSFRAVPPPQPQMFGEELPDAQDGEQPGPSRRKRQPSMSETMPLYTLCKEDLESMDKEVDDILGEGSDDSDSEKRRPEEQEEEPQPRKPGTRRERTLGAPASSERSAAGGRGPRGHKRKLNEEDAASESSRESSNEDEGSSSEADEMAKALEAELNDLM

FG-1Adn (human) = experiment: BLI; BLItz system, Advanced Kinetics mode; biotinylated FG-1Adn loaded on streptavidin biosensors; 20 mM Na-maleate (pH 5.5), 150 mM NaCl, 10 mM MgCl2, 0.05% Tween; 250 nM Scp1, 120 s association, 120 s dissociation; 1:1 Langmuir model

Q: With `COCCCOc1ccnc(C[S+]([O-])c2nc3ccccc3[nH]2)c1C` (stereo not drawn) [rabeprazole] as the molecule, how does the “almost complete inhibition of FG-1Adn binding” value (Scp1 [1]) read?
A: rabeprazole almost completely inhibited the binding of FG-1Adn to Scp1

Q: With `O=[N+]([O-])c1ccc(OP(=O)(O)O)cc1` [pNPP] as the molecule, how does the “colorimetric pNPP phosphatase assay, absorbance 410 nm” value (from here on “colorimetric pNPP phosphatase assay”) (Scp3) read?
A: inhibitory effects of FG-1Adn inhibition against FCP/SCP phosphatases using pNPP as a substrate

Q: What about the “colorimetric pNPP phosphatase assay” value (Scp1 [2]) of the same molecule?
A: Lineweaver–Burk plot analysis was performed using pNPP as a substrate

Q: What about the “colorimetric pNPP phosphatase assay” value (Scp2) of the same molecule?
A: inhibitory effects of FG-1Adn inhibition against FCP/SCP phosphatases using pNPP as a substrate

Q: What about the “colorimetric pNPP phosphatase assay” value (Fcp1) of the same molecule?
A: inhibitory effects of FG-1Adn inhibition against FCP/SCP phosphatases using pNPP as a substrate

B1: Scp1 (enzyme)
chain: T1 sequence (Q9GZU7 1-261)
Q: How did the Kd (FG-1Adn (human)) turn out when B1 was run?
A: 48.7 nM
